Measured values reported in patent publication US20250042911A1, “NOVEL BENZOPYRAN DERIVATIVE AND USE THEREOF” (SPARK BIOPHARMA, INC, priority 2021, published 2025).

System: human M2 macrophages
Experiment: Inhibition of human M2 macrophage activity, hCCL22 in culture supernatant by ELISA
Type: cell-based
Details: for inhibition at 10 µM / inhibition at 5 µM: Macrophage, 72 hours; for inhibition at 10 µM: hCCL22 inhibitory activity at 10 μM; for EC50: hCCL22 secretion, THP-1 derived M2-like macrophages, compound present during 72 hours of differentiation; for inhibition at 5 µM: hML22 inhibitory activity at 5 μM
Experimental: To obtain human M2 macrophages, human monocytes (THP-1 monocyte, CD4 expression) were stabilized in a 96-well plate for 24 hours and then incubated in culture media containing 100 ng/mL phorbal 12-myristate-13-acetate (PMA; Sigma, P8139) for 24 hours to differentiate into M0 macrophages (macrophage-like phenotype). It was confirmed that differentiated M0 macrophages had reduced CD4 expression and expressed CD11b. M0 macrophages in the plate well were washed once with culture media and incubated in culture media containing 25 ng/mL hIL-4 (Peprotech, 200-04-50) and 25 ng/mL hIL-13 (Peprotech, 200-13-50) for 72 hours to differentiate into M2-like macrophages. Test compounds were diluted by concentration in M2 differentiation media and treated simultaneously during a differentiation period of 72 hours. The inhibitory effect of the test compounds on M2 macrophages was determined by measuring hCCL22 in the medium culture supernatant cultured for 72 hours using an ELISA assay (R&D system, DMD00). The results of the activity measurements are represented in Table 3 (EC50), Table 4 ([…] inhibitory activity at 5 μM) and Table 5 (hCCL22 inhibitory activity at 10 μM).

SMILES | inhibition at 10 µM | EC50 | inhibition at 5 µM
O=c1n(-c2ccccc2)c(=O)n2n1CC=C1C2c2ccc(O)cc2OC1(CF)CF (stereo not shown) [Example 1, 7,7-bis(fluoromethyl)-10-hydroxy-2-phenyl-5,12b-dihydro-1H,7H-chromeno[4,3-c][1,2,4]triazolo[1,2-a]pyridazine-1,3(2H)-dione] | 80.4% |  | 
CC(=O)c1ccc(-n2c(=O)n3n(c2=O)C2C(=CC3)C(CF)(CF)Oc3cc(O)ccc32)cc1 (stereo not shown) [Example 2, 2-(4-acetylphenyl)-7,7-bis(fluoromethyl)-10-hydroxy-5,12b-dihydro-1H,7H-chromeno[4,3-c][1,2,4]triazolo[1,2-a]pyridazine-1,3(2H)-dione] | 64.4% |  | 
CC(=O)Nc1ccc2c(c1)OC(C)(C)C1=CCn3c(=O)n(-c4ccc(C(C)=O)cc4)c(=O)n3C12 (stereo not shown) [Example 3, N-(2-(4-acetylphenyl)-7,7-dimethyl-1,3-dioxo-2,3,5,12b-tetrahydroxy-1H,7H-chromeno[4,3-c][1,2,4]triazolo[1,2-a]pyridazin-10-yl)acetamide] | 16.9% |  | 
CC(=O)c1ccc(-n2c(=O)n3n(c2=O)C2C(=CC3)C(C)(C)Oc3cc(S(C)(=O)=O)ccc32)cc1 (stereo not shown) [Example 4, 2-(4-acetylphenyl)-7,7-dimethyl-10-(methylsulfonyl)-5,12b-dihydro-1H,7H-chromeno[4,3-c][1,2,4]triazolo[1,2-a]pyridazine-1,3(2H)-dione] | 51.9% |  | 
CC(=O)c1ccc(-n2c(=O)n3n(c2=O)C2C(=CC3)C(C)(C)Oc3cc(NS(C)(=O)=O)ccc32)cc1 (stereo not shown) [Example 5, N-(2-(4-acetylphenyl)-7,7-dimethyl-1,3-dioxo-2,3,5,12b-tetrahydro-1H,7H-chromeno[4,3-c][1,2,4]triazolo[1,2-a]pyridazin-10-yl)methanesulfonamide] | 42.3% |  | 
CC(=O)c1ccc(-n2c(=O)n3n(c2=O)C2C(=CC3)C(C)(C)Oc3cc(N)ccc32)cc1 (stereo not shown) [Example 7, 2-(4-acetylphenyl)-10-amino-7,7-dimethyl-5,12b-dihydro-1H,7H-chromeno[4,3-c][1,2,4]triazolo[1,2-a]pyridazine-1,3(2H)-dione] | 83.4% | 4.5 µM | 
CC(=O)c1ccc(-n2c(=O)n3n(c2=O)C2C(=CC3)C(C)(C)Oc3cc(N4CCOCC4)ccc32)cc1 (stereo not shown) [Example 8, 2-(4-acetylphenyl)-7,7-dimethyl-10-morpholino-5,12b-dihydro-1H,7H-chromeno[4,3-c][1,2,4]triazolo[1,2-a]pyridazine-1,3(2H)-dione] | 60.7% |  | 
CC(=O)c1ccc(-n2c(=O)n3n(c2=O)C2C(=CC3)C(C)(C)Oc3cc(NS(N)(=O)=O)ccc32)cc1 (stereo not shown) [Example 9, N-(2-(4-acetylphenyl)-7,7-dimethyl-1,3-dioxo-2,3,5,12b-tetrahydro-1H,7H-chromeno[4,3-c][1,2,4]triazolo[1,2-a]pyridazin-10-yl)sulfuric diamide] | 74.8% |  | 
CC(=O)c1ccc(-n2c(=O)n3n(c2=O)C2C(=CC3)C(C)(C)Oc3c2cc(Br)c(O)c3Br)cc1 (stereo not shown) [Example 10, 2-(4-acetylphenyl)-9,11-dibromo-10-hydroxy-7,7-dimethyl-5,12b-dihydro-1H,7H-chromeno[4,3-c][1,2,4]triazolo[1,2-a]pyridazine-1,3(2H)-dione] | 98.4% |  | 
CC(=O)c1ccc(-n2c(=O)n3n(c2=O)C2C(=CC3)C(C)(C)Oc3c2cc(Cl)c(O)c3Cl)cc1 (stereo not shown) [Example 11, 2-(4-acetylphenyl)-9,11-dichloro-10-hydroxy-7,7-dimethyl-5,12b-dihydro-1H,7H-chromeno[4,3-c][1,2,4]triazolo[1,2-a]pyridazine-1,3(2H)-dione] | 78.1% |  | 
CC1(C)Oc2cc(O)ccc2C2C1=CCn1c(=O)n(-c3cccc(F)n3)c(=O)n12 (stereo not shown) [Example 12, 2-(6-fluoropyridin-2-yl)-10-hydroxy-7,7-dimethyl-5,12b-dihydro-1H,7H-chromeno[4,3-c][1,2,4]triazolo[1,2-a]pyridazine-1,3(2H)-dione] | 16.8% |  | 
CCNc1ccc2c(c1)OC(C)(C)C1=CCn3c(=O)n(-c4ccc(C(C)=O)cc4)c(=O)n3C12 (stereo not shown) [Example 16, 2-(4-acetylphenyl)-10-(ethylamino)-7,7-dimethyl-5,12b-dihydro-1H,7H-chromeno[4,3-c][1,2,4]triazolo[1,2-a]pyridazine-1,3(2H)-dione] | 79.9% | 4 µM | 
CC(=O)c1ccc(-n2c(=O)n3n(c2=O)C2C(=CC3)C(C)(C)Oc3cc(NCC(F)(F)F)ccc32)cc1 (stereo not shown) [Example 17, 2-(4-acetylphenyl)-7,7-dimethyl-10-((2,2,2-trifluoroethyl)amino)-5,12b-dihydro-1H,7H-chromeno[4,3-c][1,2,4]triazolo[1,2-a]pyridazine-1,3(2H)-dione] |  | 8.2 µM | 
CC(=O)c1ccc(-n2c(=O)n3n(c2=O)C2C(=CC3)C(C)(C)Oc3cc(N4CCN(C(C)=O)CC4)ccc32)cc1 (stereo not shown) [Example 19, 2-(4-acetylphenyl)-10-(4-acetylpiperazin-1-yl)-7,7-dimethyl-5,12b-dihydro-1H,7H-chromeno[4,3-c][1,2,4]triazolo[1,2-a]pyridazine-1,3(2H)-dione] | 18.8% |  | 
CC(=O)c1ccc(-n2c(=O)n3n(c2=O)C2C(=CC3)C(C)(C)Oc3cc(O)c(OC(F)(F)F)cc32)cc1 (stereo not shown) [Example 25, 2-(4-acetylphenyl)-10-hydroxy-7,7-dimethyl-11-(trifluoromethoxy)-5,12b-dihydro-1H,7H-chromeno[4,3-c][1,2,4]triazolo[1,2-a]pyridazine-1,3(2H)-dione] |  |  | 42%
CC(=O)c1ccc(-n2c(=O)n3n(c2=O)C2C(=CC3)C(C)(C)Oc3c2cc(F)c(O)c3F)cc1 (stereo not shown) [Example 27, 2-(4-acetylphenyl)-9,11-difluoro-10-hydroxy-7,7-dimethyl-5,12b-dihydro-1H,7H-chromeno[4,3-c][1,2,4]triazolo[1,2-a]pyridazine-1,3(2H)-dione] |  |  | 29.9%
CC(=O)c1ccc(-n2c(=O)n3n(c2=O)C2C(=CC3)C(C)(C)Oc3c2cc(Br)c(N)c3Br)cc1 (stereo not shown) [Example 28, 2-(4-acetylphenyl)-10-amino-9,11-dibromo-7,7-dimethyl-5,12b-dihydro-1H,7H-chromeno[4,3-c][1,2,4]triazolo[1,2-a]pyridazine-1,3(2H)-dione] |  |  | 71.2%
CC(=O)c1ccc(-n2c(=O)n3n(c2=O)C2C(=CC3)C(C)(C)Oc3cc(NC(C)C)ccc32)cc1 (stereo not shown) [Example 29, 2-(4-acetylphenyl)-10-(isopropylamino)-7,7-dimethyl-5,12b-dihydro-1H,7H-chromeno[4,3-c][1,2,4]triazolo[1,2-a]pyridazine-1,3(2H)-dione] | 95.2% | 3.3 µM | 
CC(=O)c1ccc(-n2c(=O)n3n(c2=O)C2C(=CC3)C(C)(C)Oc3cc(NC(C)(C)C)ccc32)cc1 (stereo not shown) [Example 30, 2-(4-acetylphenyl)-10-(tert-butylamino)-7,7-dimethyl-5,12b-dihydro-1H,7H-chromeno[4,3-c][1,2,4]triazolo[1,2-a]pyridazine-1,3(2H)-dione] | 97.3% | 4.3 µM | 
CC(=O)c1ccc(-n2c(=O)n3n(c2=O)C2C(=CC3)C(C)(C)Oc3c2cc(Cl)c(N)c3Cl)cc1 (stereo not shown) [Example 31, 2-(4-acetylphenyl)-10-amino-9,11-dichloro-7,7-dimethyl-5,12b-dihydro-1H,7H-chromeno[4,3-c][1,2,4]triazolo[1,2-a]pyridazine-1,3(2H)-dione] | 97.2% | 2 µM | 
